Biological target: recombinant human SAE enzyme (Homo sapiens (Human), UniProt Q9UBT2)
Experiment: SAE HTRF enzyme assay
Type: biochemical
Conditions: for Percent Inhibition: Concentration 0.111 μM; for IC50: class symbols A/B/C
Procedure, shortened: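 Human SAE (0.11 nM) with 0.5 μM ATP, 0.125 μM Sumo-Flag and 0.01 μM Ubc9-GST in HEPES pH 7.5, 5 mM MgCl2, 250 μM GSH; 105 min at 24 °C. Stopped with EDTA; HTRF read after 2 h with Eu-anti-Flag and APC-anti-GST. Percent inhibition or IC50 reported.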

Chain of recombinant human SAE enzyme (Q9UBT2 whole entry): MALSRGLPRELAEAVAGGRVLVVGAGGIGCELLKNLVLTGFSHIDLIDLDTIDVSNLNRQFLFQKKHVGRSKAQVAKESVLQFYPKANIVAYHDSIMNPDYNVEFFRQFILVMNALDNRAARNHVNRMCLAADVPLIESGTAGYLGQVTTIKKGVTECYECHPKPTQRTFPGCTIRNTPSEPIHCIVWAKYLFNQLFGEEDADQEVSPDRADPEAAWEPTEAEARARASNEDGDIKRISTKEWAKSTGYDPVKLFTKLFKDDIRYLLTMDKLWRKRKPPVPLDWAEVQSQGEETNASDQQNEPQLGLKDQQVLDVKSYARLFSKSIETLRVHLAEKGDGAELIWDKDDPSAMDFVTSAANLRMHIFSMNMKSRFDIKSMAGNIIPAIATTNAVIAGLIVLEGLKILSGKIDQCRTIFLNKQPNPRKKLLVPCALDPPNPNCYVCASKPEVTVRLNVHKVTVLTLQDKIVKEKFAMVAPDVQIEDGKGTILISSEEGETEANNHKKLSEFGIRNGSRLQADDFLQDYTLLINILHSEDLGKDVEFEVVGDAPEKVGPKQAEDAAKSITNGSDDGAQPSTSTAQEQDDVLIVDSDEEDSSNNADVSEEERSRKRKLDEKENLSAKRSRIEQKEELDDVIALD
Chain of recombinant human SAE enzyme (Q9UBE0 whole entry partner): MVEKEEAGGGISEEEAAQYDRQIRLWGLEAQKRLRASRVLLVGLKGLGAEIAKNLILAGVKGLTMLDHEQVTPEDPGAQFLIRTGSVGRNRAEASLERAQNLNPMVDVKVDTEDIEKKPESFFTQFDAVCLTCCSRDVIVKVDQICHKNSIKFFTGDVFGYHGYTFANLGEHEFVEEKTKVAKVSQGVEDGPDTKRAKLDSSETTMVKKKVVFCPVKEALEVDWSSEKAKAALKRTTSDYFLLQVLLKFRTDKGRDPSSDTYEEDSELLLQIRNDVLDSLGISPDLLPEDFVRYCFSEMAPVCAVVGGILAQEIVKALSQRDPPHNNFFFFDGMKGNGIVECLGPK

| Compound | Percent Inhibition | IC50 [nM] |
| --- | --- | --- |
| N[C@H](c1cccc(Cl)n1)c1cc(C(=O)c2cncnc2N[C@@H]2C[C@H](COS(N)(=O)=O)[C@@H](O)C2)sc1Cl (single isomer, unassigned) [I-25a, [(1R,2S,4R)-4-{[5-({4-[(S)-amino(6-chloropyridin-2-yl)methyl]-5-chloro-2-thienyl}carbonyl)pyrimidin-4-yl]amino}-2-hydroxycyclopentyl]methyl sulfamate or [(1R,2S,4R)-4-{[5-({4-[(R)-amino(6-chloropyridin-2-yl)methyl]-5-chloro-2-thienyl}carbonyl)pyrimidin-4-yl]amino}-2-hydroxycyclopentyl]methyl sulfamate] | 97 | < 10 |
| NS(=O)(=O)OC[C@H]1C[C@@H](Nc2ncncc2C(=O)c2cc(C(O)c3cccc(Cl)n3)cs2)C[C@@H]1O (single isomer, unassigned) [I-29b, [(1R,2S,4R)-4-{[5-({4-[(S)-(6-chloropyridin-2-yl)(hydroxy)methyl]-2-thienyl}carbonyl)pyrimidin-4-yl]amino}-2-hydroxycyclopentyl]methyl sulfamate or [(1R,2S,4R)-4-{[5-({4-[(R)-(6-chloropyridin-2-yl)(hydroxy)methyl]-2-thienyl}carbonyl)pyrimidin-4-yl]amino}-2-hydroxycyclopentyl]methyl sulfamate] | 99 | < 10 |

Reference: patent publication US10780090B2, “Heteroaryl compounds useful as inhibitors of SUMO activating enzyme” (Millennium Pharmaceuticals, Inc., priority 2014, dated 2020)
